# Reference: patent US4041076A, “Immunoassay for pharmacologically active phenethylamines” (Hoffmann-La Roche Inc., priority 1976, dated 1977)
# Assays:
# [1] = system: amphetamine antibody (pooled antisera); test: Radioimmunoassay for amphetamine (displacement of 125I-labeled amphetamine analog from antibody); format: binding, goats; conditions: for Cross-reactivity: concentration of amphetamine equivalent in the assay to 10 μg/ml. of the test drug: pooled antisera selected for low cross-reactivity; for Relative Reactivity, Radioimmunoassay: cross-reactivity expressed as relative reactivity
# [2] = cross-reactivity expressed as relative reactivity; Braitin and Sunshine 1973; cited from earlier work
# [3] = cross-reactivity expressed as relative reactivity; Braitin and Sunshine 1973; cited from earlier work; remark: listed apart in the source
Compound,Cross-reactivity: concentration of amphetamine equivalent in the assay to 10 μg/ml. of the test drug ([1]; test drug at 10 μg/ml) [µg/mL],"Relative Reactivity, Radioimmunoassay [1]","Relative Reactivity, FRAT [2]","Relative Reactivity, EMIT [3]","Amphetamine equivalent when tested with 10 μg/ml. of test drug, individual sera ([1]; individual sera (not the selected pool), test drug at 10 μg/ml) [µg/mL]"
"COc1ccc2c(c1)C13CCCCC1C(C2)N(C)CC3 (single isomer, unassigned) [Dextromethorphan]",0.003,–,–,–,–
CNC(C)CC1CCCC1 (centres unmarked) [Cyclopentamine],–,0.02,0.2,0.3,–
NCCc1ccc(O)c(O)c1 [Dopamine],0.015,–,–,–,–
"CN[C@@H](C)[C@H](O)c1ccccc1 [Ephedrine (1-form), Ephedrine]",0.003,0.0003,0.15,0.2,–
CC(C)NCC(O)c1ccc(O)c(O)c1 (centres unmarked) [Isoproterenol],0,–,–,–,–
CC(COc1ccccc1)NC(C)C(O)c1ccc(O)cc1 (centres unmarked) [Isoxsuprine],–,0,0.05,0.2,–
CNC(C)(C)Cc1ccccc1 [Mephentermine],–,–,–,0.6,–
NCC(O)c1ccc(O)c(O)c1 (centres unmarked) [Norepinephrine],0.003,–,–,–,–
CC(CCc1ccccc1)NC(C)C(O)c1ccc(O)cc1 (centres unmarked) [Nylidrin],–,–,0.1,–,–
CC1NCCOC1c1ccccc1 (centres unmarked) [Phenmetrazine],0.06,–,–,–,–
CC(C)(N)Cc1ccccc1 [Phentermine],0.7,0.07,1.0,–,2 to 5
CC(N)C(O)c1ccccc1 (centres unmarked) [Phenylpropanolamine],0.17,–,–,–,–
CNC(C)CC1CCCCC1 (centres unmarked) [Propylhexedrine],0.3,0.03,0.5,–,–
NCCc1ccc(O)cc1 [Tyramine],0.17,–,–,–,–
